Test results as given in patent US9718809B2, “Bisarylsulfonamides useful in the treatment of inflammation and cancer” (Kancera AB, priority 2011, dated 2017).

Key:
F-2,6-P2 in PANC-1 cells = experiment: Quantification of F-2,6-P2 (Van Schaftingen coupled enzyme assay) in PANC-1 cells; format: cell-based, human; conditions: Homo sapiens; PANC-1 cells; read-out: IC50 based on quantification of F-2,6-P2
Method in brief: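 PANC-1 cells (~25 000/well) starved 18 h in glucose-free 0.25% FBS medium, treated 1 h with compound (50 and 10 μM, or dose response from 50 μM; 0.5% DMSO), then glucose added for 2 h at 37 °C. Cells lysed in NaOH; F-2,6-P2 quantified by PPi-PFK coupled NADH-consumption spectrophotometry.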

SW620 cells = experiment: Inhibition of cancer cell proliferation, total cellular protein (Sulphorhodamine B), SW620; conditions: Homo sapiens, SW-620, 72 h, read-out: IC50 based on quantitation of total cellular protein after treatment
Procedure: To assess the antiproliferative response elicited by the compounds of the present invention in different tumour cell lines, total cellular protein in samples was quantified using the Sulphorhodamine B kit, TOX6, (Sigma-Aldrich). The protocol is based on quantitation of total cellular protein after indicated treatments and incubation times using the Sulphorhodamine B kit, TOX6, (Sigma-Aldrich).
Briefly, after protein precipitation using TCA according to the manufacturer's instructions, the sulphorhodamine dye (80 μL/well) was added to the air-dried wells. After 20 min incubation at room temperature, the dye was discarded and the samples were gently rinsed with 1% HOAc until clear. After air drying, bound dye was solubilised in 200 μL 10 mM Tris base, and the absorbance of dye was measured at 565 nm. To quantify growth, samples were collected also at t=0 h, and the resulting absorbance was set to 100%. […]
After protein precipitation using TCA according to the manufacturer's instructions, the sulforhodamine B dye (50 μL/well) was added to the air-dried wells. […] After air drying, bound dye was solubilised in 100 μL 10 mM Tris base, and the absorbance of dye was measured at 530 nm and a background absorbance (subtract from the measurement at 530 nm) at 690 nm. To quantify growth, samples were collected also at t=0 h.

IC50 (F-2,6-P2 in PANC-1 cells): 1.5 µM
IC50 (SW620 cells): 11.8 µM
Compound: COC(=O)c1ccc(NS(=O)(=O)c2cc(Cl)c(Cl)s2)cc1OC(C)=O [Example 132, Methyl 2-(acetyloxy)-4-{[(4,5-dichlorothiophen-2-yl)sulfonyl]amino}benzoate]
